From ChEMBL document CHEMBL1201862, “PubChem BioAssay data set” (2004)
Activity calls are given as the source filed them.

Assays:
[1] = viability loss in THP-1 monocytes – THP-1 cells, cytotoxicity control for Vif-APOBEC3G degradation inhibitor project, dose response (AID 1117359); format: functional; conditions: THP-1
Vero = assay: viability of Vero cells under compound – cytotoxicity control for flavivirus capping enzyme inhibitors (AID 588742); format: functional; conditions: Chlorocebus sabaeus
[2] = molecular target: T1, Probable nicotinate-nucleotide adenylyltransferase (Staphylococcus aureus (strain N315), UniProt P65502); format: functional, Staphylococcus aureus subsp. aureus N315;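 for IC50 Mean: confirmatory dose-response retesting of NadD inhibitor hits first found in an ultra-high-throughput screen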
T1 sequence (P65502 whole entry): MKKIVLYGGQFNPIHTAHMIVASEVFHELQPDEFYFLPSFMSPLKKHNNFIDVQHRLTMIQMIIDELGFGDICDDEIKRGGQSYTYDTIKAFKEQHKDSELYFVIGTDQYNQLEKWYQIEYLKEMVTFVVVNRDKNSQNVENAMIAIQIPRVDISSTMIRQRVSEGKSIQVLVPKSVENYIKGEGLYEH

[3] = molecular target: T1, Probable nicotinate-nucleotide adenylyltransferase; format: functional, Staphylococcus aureus subsp. aureus N315; conditions: read-out: IC50_Mean
Protein Tat = Protein Tat (Human immunodeficiency virus type 1 group M subtype B (isolate HXB2)(HIV-1), UniProt P04608); format: functional;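 note: tat binding to TAR RNA read out by fluorescence polarization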
Sequence of Protein Tat (P04608 whole entry): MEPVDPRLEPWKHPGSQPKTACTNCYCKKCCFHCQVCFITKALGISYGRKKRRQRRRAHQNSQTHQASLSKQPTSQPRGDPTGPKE

Genome polyprotein = Genome polyprotein (dengue virus type 2, UniProt P29990); assay: flavivirus cap methylation enzyme inhibition – biochemical, confirmation dose response, primary screen (AID 588689); format: functional
Sequence of Genome polyprotein (P29990 2492-3391 limits assumed): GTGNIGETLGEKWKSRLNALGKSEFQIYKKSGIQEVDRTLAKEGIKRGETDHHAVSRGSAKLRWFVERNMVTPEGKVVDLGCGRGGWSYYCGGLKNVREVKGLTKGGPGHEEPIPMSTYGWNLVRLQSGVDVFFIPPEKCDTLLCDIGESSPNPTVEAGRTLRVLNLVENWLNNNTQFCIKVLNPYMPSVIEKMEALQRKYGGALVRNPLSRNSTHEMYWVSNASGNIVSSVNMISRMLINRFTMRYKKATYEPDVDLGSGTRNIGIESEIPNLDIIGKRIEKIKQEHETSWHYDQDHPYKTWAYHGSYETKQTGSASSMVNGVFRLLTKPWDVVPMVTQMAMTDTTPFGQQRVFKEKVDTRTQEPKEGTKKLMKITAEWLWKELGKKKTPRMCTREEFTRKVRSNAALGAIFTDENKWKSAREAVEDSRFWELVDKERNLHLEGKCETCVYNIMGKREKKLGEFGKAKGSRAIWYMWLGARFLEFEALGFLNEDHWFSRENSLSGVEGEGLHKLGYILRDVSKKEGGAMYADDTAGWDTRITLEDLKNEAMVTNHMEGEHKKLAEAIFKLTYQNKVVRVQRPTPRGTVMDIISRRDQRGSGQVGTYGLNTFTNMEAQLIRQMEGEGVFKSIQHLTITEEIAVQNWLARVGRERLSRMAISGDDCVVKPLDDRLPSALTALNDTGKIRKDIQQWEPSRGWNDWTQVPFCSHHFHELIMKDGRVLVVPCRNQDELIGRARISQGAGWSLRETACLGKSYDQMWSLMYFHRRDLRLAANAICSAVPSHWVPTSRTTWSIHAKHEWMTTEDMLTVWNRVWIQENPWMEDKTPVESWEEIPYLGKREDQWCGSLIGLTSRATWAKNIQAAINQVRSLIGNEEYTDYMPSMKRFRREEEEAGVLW

[4] = molecular target: Glucose-6-phosphate 1-dehydrogenase (Homo sapiens, UniProt P11413); assay: inhibition of Homo sapiens G6PD, dose series – biochemical, fluorescence, selectivity assay for P. falciparum G6PD inhibitor project, dose response (AID 504792); format: functional
Sequence of Glucose-6-phosphate 1-dehydrogenase (P11413 whole entry): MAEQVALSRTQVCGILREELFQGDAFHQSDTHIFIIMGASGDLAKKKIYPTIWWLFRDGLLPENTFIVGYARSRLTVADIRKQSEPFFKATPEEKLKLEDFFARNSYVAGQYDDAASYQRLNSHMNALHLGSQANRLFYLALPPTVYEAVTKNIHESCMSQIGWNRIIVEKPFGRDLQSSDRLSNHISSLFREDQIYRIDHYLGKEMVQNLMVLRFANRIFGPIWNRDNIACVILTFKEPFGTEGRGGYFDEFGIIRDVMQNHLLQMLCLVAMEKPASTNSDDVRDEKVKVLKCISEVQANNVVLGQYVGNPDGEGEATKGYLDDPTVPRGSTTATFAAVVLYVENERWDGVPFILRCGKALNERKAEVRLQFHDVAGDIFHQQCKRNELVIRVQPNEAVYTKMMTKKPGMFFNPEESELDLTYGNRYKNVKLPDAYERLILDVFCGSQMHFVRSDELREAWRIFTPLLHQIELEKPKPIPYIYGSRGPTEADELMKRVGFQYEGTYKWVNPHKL

[5] = molecular target: RNA-editing ligase 1, mitochondrial (Trypanosoma brucei brucei, UniProt P86926); assay: inhibition of trypanosome RNA editing ligase – biochemical, fluorescence, Trypanosoma brucei, dose response (AID 1117295); format: functional
Sequence of RNA-editing ligase 1, mitochondrial (P86926 whole entry): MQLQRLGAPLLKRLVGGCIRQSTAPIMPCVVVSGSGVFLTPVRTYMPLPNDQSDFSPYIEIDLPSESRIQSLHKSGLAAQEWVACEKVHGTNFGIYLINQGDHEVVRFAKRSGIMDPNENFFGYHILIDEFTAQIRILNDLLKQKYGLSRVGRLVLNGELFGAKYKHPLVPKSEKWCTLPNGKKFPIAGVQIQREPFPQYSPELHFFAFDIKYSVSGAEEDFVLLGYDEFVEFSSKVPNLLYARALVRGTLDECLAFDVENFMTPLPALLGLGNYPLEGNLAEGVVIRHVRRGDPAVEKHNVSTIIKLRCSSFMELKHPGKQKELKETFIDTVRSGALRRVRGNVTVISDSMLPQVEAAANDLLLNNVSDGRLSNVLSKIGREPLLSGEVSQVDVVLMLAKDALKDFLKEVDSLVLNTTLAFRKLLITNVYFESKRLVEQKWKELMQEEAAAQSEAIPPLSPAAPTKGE

[6] = BioA aminotransferase inhibition, coupled fluorescent readout – biochemical, coupled fluorescence displacement, 20-point, dry powder, dose response (AID 743357); format: functional
[7] = molecular target: G-protein coupled receptor 183 (Homo sapiens, UniProt P32249); assay: SAR confirmation of small molecule antagonists of the EBI2 receptor via a luminescent beta-arrestin assa.; format: functional
Sequence of G-protein coupled receptor 183 (P32249 whole entry): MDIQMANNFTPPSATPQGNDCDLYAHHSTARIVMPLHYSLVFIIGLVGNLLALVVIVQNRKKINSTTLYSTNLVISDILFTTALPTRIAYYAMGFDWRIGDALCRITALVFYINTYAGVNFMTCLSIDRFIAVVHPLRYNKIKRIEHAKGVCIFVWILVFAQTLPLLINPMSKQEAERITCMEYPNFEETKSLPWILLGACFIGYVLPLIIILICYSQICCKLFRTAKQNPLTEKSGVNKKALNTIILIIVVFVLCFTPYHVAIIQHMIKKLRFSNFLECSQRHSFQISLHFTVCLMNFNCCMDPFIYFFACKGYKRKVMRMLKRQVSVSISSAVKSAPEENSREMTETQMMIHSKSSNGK

[8] = alpha-synuclein stem-loop luciferase translation blockers – H4 neuroglioma cells, luminescence, confirmation (AID 1988); format: functional, cell-based
P388 = assay: cells; format: functional; conditions: Mus musculus
[9] = rise of 4N DNA cells, HeLa – IC50, dose response (AID 1117351); format: functional, cell-based
P388/ADR = assay: cells; format: functional; conditions: Mus musculus
[10] = cytotoxicity toward HT-29 cells – cell-based, CellTiter-Glo luminescence, IC50, dose response (AID 1117330); format: functional
[11] = cytotoxicity toward Colo320 cells – cell-based, CellTiter-Glo luminescence, IC50, dose response (AID 1117334); format: functional; conditions: COLO 320
[12] = HCT116 cell viability decrease, GSK3B pretreatment – CellTiter-Glo, IC50, dose response (AID 1117339); format: functional; conditions: HCT-116
[13] = DRD fibroblast viability loss – cell-based, non-viral oncogenic, luminescence, dose response (AID 1934); format: functional; conditions: Homo sapiens
BJ [14] = assay: BJ-TERT fibroblast viability loss – cell-based, RAS-independent, luminescence, dose response (AID 1933); format: functional; conditions: Homo sapiens
[15] = RKO cell viability reduction, dose response, CellTiter-Glo luminescence (AID 1117322); format: functional
[16] = SNU-C1 cell viability reduction, dose response, CellTiter-Glo luminescence (AID 1117323); format: functional, cell-based
BJ [17] = assay: BJ-TERT-LT-ST fibroblast viability loss – cell-based, RAS-independent, luminescence, dose response (AID 1935); format: functional; conditions: Homo sapiens;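 note: BJ fibroblasts immortalized with TERT plus LT and ST oncogenes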
[18] = luciferase reporter signal suppression in cells – H4 neuroglioma cells, luminescence, dose response (AID 1990); format: functional, cell-based
[19] = rise of 2N DNA cells, HeLa – IC50, dose response (AID 1117349); format: functional, cell-based
BJ [20] = assay: cells; format: functional, cell-based; conditions: Homo sapiens
[21] = microbe, parasite or virus in culture; format: functional; conditions: Mycobacterium tuberculosis
[22] = cytotoxicity toward HCT116 cells – cell-based, CellTiter-Glo luminescence, IC50, dose response (AID 1117332); format: functional; conditions: HCT-116
SN12K1 = assay: cells; format: functional; conditions: Homo sapiens
[23] = Reduced DLD-1 viability, concentration-response, CellTiter-Glo luminescence (AID 1117352); format: functional
BJ [24] = assay: growth inhibition of engineered Ras-driven BJ cells – cell-based, alamar blue fluorescence, cherrypicked samples, dose response (AID 2631); format: functional; conditions: Homo sapiens;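 note: confirmatory dose-response assay in RAS-dependent BJ fibroblasts engineered with TERT, LT and ST, with cytotoxicity read by fluorescence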
[25] = CellTiter-Glo luminescence survival assay, SW480 colon tumor line, concentration-response curve, half-maximal inhibitory concentration (AID 1117338); format: functional
cells [26] = assay: cells
[27] = molecular target: T2, Oxysterols receptor LXR-beta (Homo sapiens, UniProt P55055); format: functional, cell-based;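 note: Cell-based luminescence dose-response assay of agonist activity at LXR, run as a confirmatory counterscreen to a daf-12 agonist screen; agonist potency from rising luciferase signal of a Gal4-LXR reporter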
T2 sequence (P55055 whole entry): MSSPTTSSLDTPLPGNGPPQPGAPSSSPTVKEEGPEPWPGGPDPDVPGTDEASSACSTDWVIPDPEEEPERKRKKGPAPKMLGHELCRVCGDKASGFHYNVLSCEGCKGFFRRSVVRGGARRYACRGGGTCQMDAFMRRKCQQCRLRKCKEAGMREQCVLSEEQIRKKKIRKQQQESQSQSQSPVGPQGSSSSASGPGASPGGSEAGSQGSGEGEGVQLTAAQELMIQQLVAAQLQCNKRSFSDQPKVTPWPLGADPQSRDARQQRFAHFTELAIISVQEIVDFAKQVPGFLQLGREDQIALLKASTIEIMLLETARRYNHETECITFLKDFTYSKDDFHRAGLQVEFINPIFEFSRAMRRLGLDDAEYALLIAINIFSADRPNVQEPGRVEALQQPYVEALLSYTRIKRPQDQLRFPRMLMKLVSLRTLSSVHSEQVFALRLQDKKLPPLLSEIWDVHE

[28] = Luminescence-based cell-based high throughput dose response assay to identify activators of the DAF-12 from the parasite S. stercoralis (ssDAF-12).; format: functional
[29] = molecular target: T2, Oxysterols receptor LXR-beta; assay: LXR agonists, Gal4 luciferase reporter, dose response, counter-screen for ssDAF-12 agonist project, cell-based, luminescence, HEK293, S. stercoralis campaign (AID 720737); format: functional; conditions: read-out: IC50 (the source's name)
[30] = molecular target: E3 ubiquitin-protein ligase UHRF1 (Homo sapiens, UniProt Q96T88); assay: Counterscreen for inhibitors of 5-meCpG-binding domain protein 2 (MBD2): TRFRET-based biochemical high throughput dose response assay to identify inhibitors of binding of ubiquitin-like with PHD and ring finger domains 1 (UHRF1) to methylated oligonucleotide.
Sequence of E3 ubiquitin-protein ligase UHRF1 (Q96T88 whole entry, the tested form may be a part): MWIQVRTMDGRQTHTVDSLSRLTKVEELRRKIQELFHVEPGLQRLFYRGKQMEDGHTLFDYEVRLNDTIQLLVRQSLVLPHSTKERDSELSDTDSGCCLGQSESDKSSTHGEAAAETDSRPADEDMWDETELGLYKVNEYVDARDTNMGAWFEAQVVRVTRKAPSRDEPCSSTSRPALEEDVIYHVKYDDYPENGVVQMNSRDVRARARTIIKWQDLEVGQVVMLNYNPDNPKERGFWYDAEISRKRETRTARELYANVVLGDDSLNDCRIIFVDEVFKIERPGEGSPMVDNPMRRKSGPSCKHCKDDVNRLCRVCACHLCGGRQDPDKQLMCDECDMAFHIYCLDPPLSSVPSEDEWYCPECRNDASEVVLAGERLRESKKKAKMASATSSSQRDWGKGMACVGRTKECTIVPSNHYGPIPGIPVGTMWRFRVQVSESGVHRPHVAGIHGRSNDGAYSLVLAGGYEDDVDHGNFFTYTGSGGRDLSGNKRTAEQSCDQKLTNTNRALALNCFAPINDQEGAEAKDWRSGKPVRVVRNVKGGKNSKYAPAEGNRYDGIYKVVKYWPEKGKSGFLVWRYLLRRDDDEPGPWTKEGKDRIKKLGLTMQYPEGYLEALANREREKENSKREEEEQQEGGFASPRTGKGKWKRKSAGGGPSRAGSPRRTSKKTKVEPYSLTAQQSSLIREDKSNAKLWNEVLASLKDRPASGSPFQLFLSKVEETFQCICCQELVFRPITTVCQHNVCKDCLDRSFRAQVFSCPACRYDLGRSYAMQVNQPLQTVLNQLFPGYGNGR

cells [31] = conditions: A549
HeLa = assay: ATP-based viability loss in HeLa cells – cell-based, CellTiter-Glo luminescence, cherry-pick samples, cytotoxicity control for MITF activator project, dose response (AID 540259); format: functional; conditions: Homo sapiens
cells [32] = conditions: HEK293
[33] = molecular target: T3, DNA repair and recombination protein RAD54-like (Homo sapiens, UniProt Q92698); assay: RAD54 Holliday junction migration blockers – biochemical, fluorescence, cherry-picked samples, dose series, confirmation (AID 651657); format: functional
T3 sequence (Q92698 whole entry): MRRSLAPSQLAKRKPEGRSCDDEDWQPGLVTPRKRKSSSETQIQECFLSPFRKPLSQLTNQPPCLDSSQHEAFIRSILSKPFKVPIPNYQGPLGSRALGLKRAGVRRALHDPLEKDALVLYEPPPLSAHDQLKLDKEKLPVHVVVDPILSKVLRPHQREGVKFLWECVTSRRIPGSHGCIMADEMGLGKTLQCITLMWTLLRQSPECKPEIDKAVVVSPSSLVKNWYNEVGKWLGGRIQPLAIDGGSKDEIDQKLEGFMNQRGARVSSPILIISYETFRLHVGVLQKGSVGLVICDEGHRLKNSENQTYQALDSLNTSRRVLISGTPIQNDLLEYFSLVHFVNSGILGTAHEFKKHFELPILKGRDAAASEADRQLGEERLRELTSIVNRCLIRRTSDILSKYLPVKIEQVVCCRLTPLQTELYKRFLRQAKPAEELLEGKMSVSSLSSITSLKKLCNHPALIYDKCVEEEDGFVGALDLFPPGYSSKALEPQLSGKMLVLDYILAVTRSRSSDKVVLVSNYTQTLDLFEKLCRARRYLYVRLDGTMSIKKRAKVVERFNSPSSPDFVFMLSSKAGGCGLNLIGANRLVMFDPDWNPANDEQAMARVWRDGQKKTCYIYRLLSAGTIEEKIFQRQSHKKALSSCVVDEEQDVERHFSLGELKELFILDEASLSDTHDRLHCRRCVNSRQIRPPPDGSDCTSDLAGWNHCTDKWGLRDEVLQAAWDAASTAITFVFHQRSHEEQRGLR

[34] = viability loss in HepG2 liver cells – cell-based, ATP luminescence, cherry-pick, set 6, cytotoxicity control, dose response (AID 1053125); format: functional
[35] = viability loss in A549 lung cells – cell-based, 24 h, CellTiter-Glo luminescence, cherry-picks, cytotoxicity control, dose response (AID 1053115); format: functional; conditions: A549, 24 h
[36] = Orthopox viral replication plaque formation Measured in Cell-Based and Microorganism Combination System Using Imaging - 2142-05_Inhibitor_Dose_DryPowder_Activity.; format: functional
[37] = lung carcinoma cell viability loss – CellTiter-Glo luminescence, dry powder, set 17, dose response (AID 1117284); format: functional, cell-based, A549
[38] = IC50 of insulin release inhibition, rat insulinoma INS-1E line, 5 mM glucose, cell-based (AID 1117331); format: functional

O=C1OC(c2ccc3ccccc3c2O)(c2ccc3ccccc3c2O)c2ccccc21
CC50 [1]: > 40 µM (active) | CC50 (Vero): > 40 µM (active) | IC50 [2]: 7.05 µM (active) | IC50 [3]: 20.9 µM (active) | IC50 (Protein Tat): > 100 µM (active) | IC50 (Genome polyprotein): 19 µM (active) | IC50 [4]: > 80 µM (inactive)

CCCCN(C)C(=O)c1ccc(Nc2nc(C(N)Cc3ccc(C(F)(F)F)cc3)cs2)nc1 (stereo unspecified)
IC50 [5]: > 96.6 µM (inactive)

CS(=O)(=O)c1ccc(N2CCN(C(=O)c3ccc4c(c3)OCO4)CC2)cc1
AC50 [6]: 15.1 µM (active)

CCCc1ccc(S(=O)(=O)N2CCN(C(=O)/C=C/c3ccc(F)cc3)CC2)cc1
IC50 [7]: 0.0241 µM (active)

Sc1ncnc2nc[nH]c12 [MERCAPTOPURINE ANHYDROUS]
EC50 [8]: 11.6 µM (active) | GI50 (P388): 8.89 µM (inactive) | IC50 [9]: > 10 µM (inactive) | GI50 (P388/ADR): 19.5 µM (inactive) | IC50 [10]: 0.635 µM (active) | IC50 [11]: 1.3 µM (active) | IC50 [12]: 1.42 µM (active) | EC50 [13]: 5.35 µM (active) | EC50 (BJ [14]): > 150 µM (not active) | IC50 [15]: 0.659 µM (active) | IC50 [16]: > 20 µM (inactive) | EC50 (BJ [17]): > 150 µM (not active) | EC50 [18]: 13 µM (active) | IC50 [19]: > 10 µM (inactive) | EC50 (BJ [20]): 4.33 µM (inconclusive) | CC50 [21]: > 40 µM (active) | IC50 [22]: 0.259 µM (active) | GI50 (SN12K1): 1.29 µM (inactive) | IC50 [23]: 0.26 µM (active) | EC50 (BJ [24]): > 133 µM (inactive) | IC50 [25]: 1.04 µM (active)

Cc1ccc(-c2cc3nc(C)cc(C)n3n2)cc1
EC50 (cells [26]): > 67.5 µM (inactive) | EC50 [27]: > 67.5 µM (inactive) | IC50 [28]: > 67.5 µM (inactive) | EC50 [29]: > 67.5 µM (inactive)

COc1cc2sc3cc(NCC[C@@H]4CCCN4C)ccc3c(=O)c2cc1OC
IC50 [30]: 26.2 µM (inactive) | AC50 (cells [31]): 35.5 µM (active) | AC50 (HeLa): 191 µM (active) | AC50 (cells [32]): 38 µM (active) | AC50 [33]: 6.9 µM (active) | AC50 [34]: 17.6 µM (active)

C[C@@H](O)C#Cc1ccc2c(c1)O[C@@H](CN(C)Cc1ccc(-c3ccccc3)cc1)[C@@H](C)CN([C@@H](C)CO)S2(=O)=O
AC50 [35]: > 60 µM (inactive) | AC50 [36]: 8.84 µM (active) | AC50 ([37]; A549): > 52 µM (inactive) | AC50 ([37]; a549): 49.4 µM (active)

CN(C)CC[C@@H](c1ccc(Cl)cc1)c1ccccn1
IC50 [38]: 17.7 µM (inactive)
